Experimental data taken from patent US12365696B2, “Small-molecule focal adhesion kinase (FAK) inhibitors” (DANA-FARBER CANCER INSTITUTE, INC., priority 2019, dated 2025).

Key:
Test in all cases: KINOMEscan
Assay type in all cases: binding
CAMK1G = CAMK1G (Homo sapiens (Human), UniProt Q96NX5); conditions: 10000 nM, read-out: Percent Control
PIK3CA(I800L) = PIK3CA(I800L) (Homo sapiens (Human), UniProt P42336, I800L); conditions: 10000 nM, read-out: Percent Control
PIM3 = PIM3 (Homo sapiens (Human), UniProt Q86V86); conditions: PIM3, 10000 nM; read-out: Percent Control
CAMKK1 = CAMKK1 (Homo sapiens (Human), UniProt Q8N5S9); conditions: CAMKK1, 10000 nM; read-out: Percent Control
PRKCE = PRKCE (Homo sapiens (Human), UniProt Q02156); conditions: 10000 nM, read-out: Percent Control
[1] = molecular target: ABL1(T315I)-phosphorylated (Homo sapiens (Human), UniProt P00519, T315I); conditions: 10000 nM, read-out: Percent Control
KIT(D816H) = KIT(D816H) (Homo sapiens (Human), UniProt P10721, D816H); conditions: 10000 nM, read-out: Percent Control
DRAK2 = DRAK2 (Homo sapiens (Human), UniProt O94768); conditions: DRAK2, 10000 nM; read-out: Percent Control
TIE1 = TIE1 (Homo sapiens (Human), UniProt P35590); conditions: TIE1, 10000 nM; read-out: Percent Control
WEE2 = WEE2 (Homo sapiens (Human), UniProt P0C1S8); conditions: WEE2, 10000 nM; read-out: Percent Control
EPHA8 = EPHA8 (Homo sapiens (Human), UniProt P29322); conditions: EPHA8, 10000 nM; read-out: Percent Control
FLT3 = FLT3 (Homo sapiens (Human), UniProt P36888); conditions: FLT3, 10000 nM; read-out: Percent Control
ASK2 = ASK2 (Homo sapiens (Human), UniProt O95382); conditions: ASK2, 10000 nM; read-out: Percent Control
MYLK2 = MYLK2 (Homo sapiens (Human), UniProt Q9H1R3); conditions: MYLK2, 10000 nM; read-out: Percent Control
FLT3(K663Q) = FLT3(K663Q) (Homo sapiens (Human), UniProt P36888, K663Q); conditions: 10000 nM, read-out: Percent Control
IKK-epsilon = IKK-epsilon (Homo sapiens (Human), UniProt Q14164); conditions: 10000 nM, read-out: Percent Control
PCTK1 = PCTK1 (Homo sapiens (Human), UniProt Q00536); conditions: PCTK1, 10000 nM; read-out: Percent Control
ACVR2B = ACVR2B (Homo sapiens (Human), UniProt Q13705); conditions: 10000 nM, read-out: Percent Control
CDC2L5 = CDC2L5 (Homo sapiens (Human), UniProt Q14004); conditions: CDC2L5, 10000 nM; read-out: Percent Control
Experimental: (§1) Selectivity profiling of compound 3 among a panel of kinases was performed with KINOMEscan® as set forth below. The KINOMEscan® screening platform employs an active site-directed competition binding assay to quantitatively measure interactions between a test compound, e.g., compound 3, and more than 450 kinases and disease-relevant mutant variants.
(§2) Screening of compound 3 was conducted at a concentration of 10 μM by Eurofins DiscoverX. Activity is measured as the ability of compound 3 to displace the kinase from a solid support relative to a negative control (i.e., DMSO). The output is % control.

PRP4 = PRP4 (Homo sapiens (Human), UniProt Q13523); conditions: PRP4, 10000 nM; read-out: Percent Control
Experimental: as §1, §2

CTK = CTK (Homo sapiens (Human), UniProt P42679); conditions: 10000 nM, read-out: Percent Control
[2] = molecular target: ABL1(H396P)-nonphosphorylated (Homo sapiens (Human), UniProt P00519, H396P); conditions: 10000 nM, read-out: Percent Control
ERBB3 = ERBB3 (Homo sapiens (Human), UniProt P21860); conditions: ERBB3, 10000 nM; read-out: Percent Control
CSK = CSK (Homo sapiens (Human), UniProt P41240); conditions: 10000 nM, read-out: Percent Control
FAK = FAK (Homo sapiens (Human), UniProt Q05397); conditions: 10000 nM, read-out: Percent Control
CSNK2A1 = CSNK2A1 (Homo sapiens (Human), UniProt P68400); conditions: CSNK2A1, 10000 nM; read-out: Percent Control
RIPK1 = RIPK1 (Homo sapiens (Human), UniProt Q13546); conditions: RIPK1, 10000 nM; read-out: Percent Control
TRKB = TRKB (Homo sapiens (Human), UniProt Q16620); conditions: 10000 nM, read-out: Percent Control
DRAK1 = DRAK1 (Homo sapiens (Human), UniProt Q9UEE5); conditions: DRAK1, 10000 nM; read-out: Percent Control
ZAP70 = ZAP70 (Homo sapiens (Human), UniProt P43403); conditions: ZAP70, 10000 nM; read-out: Percent Control
MKNK2 = MKNK2 (Homo sapiens (Human), UniProt Q9HBH9); conditions: MKNK2, 10000 nM; read-out: Percent Control

KIT(D816H), sequence (P10721 26-976 D816H): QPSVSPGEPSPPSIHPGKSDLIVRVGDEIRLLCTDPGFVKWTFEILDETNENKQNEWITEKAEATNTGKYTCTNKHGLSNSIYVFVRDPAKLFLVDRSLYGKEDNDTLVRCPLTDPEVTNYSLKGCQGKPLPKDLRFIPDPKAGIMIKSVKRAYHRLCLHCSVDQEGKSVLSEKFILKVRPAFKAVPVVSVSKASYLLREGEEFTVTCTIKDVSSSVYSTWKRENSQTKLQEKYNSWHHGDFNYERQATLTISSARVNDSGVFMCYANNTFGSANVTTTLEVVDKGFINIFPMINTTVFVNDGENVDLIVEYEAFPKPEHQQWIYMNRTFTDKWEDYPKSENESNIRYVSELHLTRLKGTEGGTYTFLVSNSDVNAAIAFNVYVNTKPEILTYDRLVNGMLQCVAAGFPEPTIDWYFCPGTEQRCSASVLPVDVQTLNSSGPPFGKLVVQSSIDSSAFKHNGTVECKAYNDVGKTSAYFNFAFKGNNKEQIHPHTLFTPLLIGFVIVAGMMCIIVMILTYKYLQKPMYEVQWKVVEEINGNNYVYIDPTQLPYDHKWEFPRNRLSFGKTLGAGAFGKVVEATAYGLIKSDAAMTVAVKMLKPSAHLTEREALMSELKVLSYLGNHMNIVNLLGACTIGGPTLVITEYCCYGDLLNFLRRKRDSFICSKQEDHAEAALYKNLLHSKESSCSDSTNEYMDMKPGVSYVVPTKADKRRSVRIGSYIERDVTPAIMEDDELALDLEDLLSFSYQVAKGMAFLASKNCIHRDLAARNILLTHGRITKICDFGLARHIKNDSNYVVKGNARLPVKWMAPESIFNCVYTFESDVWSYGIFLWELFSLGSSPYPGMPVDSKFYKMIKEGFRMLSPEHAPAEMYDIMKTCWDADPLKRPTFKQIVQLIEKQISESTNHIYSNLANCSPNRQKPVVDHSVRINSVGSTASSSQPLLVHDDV
CDC2L5, sequence (Q14004 whole entry, looked up): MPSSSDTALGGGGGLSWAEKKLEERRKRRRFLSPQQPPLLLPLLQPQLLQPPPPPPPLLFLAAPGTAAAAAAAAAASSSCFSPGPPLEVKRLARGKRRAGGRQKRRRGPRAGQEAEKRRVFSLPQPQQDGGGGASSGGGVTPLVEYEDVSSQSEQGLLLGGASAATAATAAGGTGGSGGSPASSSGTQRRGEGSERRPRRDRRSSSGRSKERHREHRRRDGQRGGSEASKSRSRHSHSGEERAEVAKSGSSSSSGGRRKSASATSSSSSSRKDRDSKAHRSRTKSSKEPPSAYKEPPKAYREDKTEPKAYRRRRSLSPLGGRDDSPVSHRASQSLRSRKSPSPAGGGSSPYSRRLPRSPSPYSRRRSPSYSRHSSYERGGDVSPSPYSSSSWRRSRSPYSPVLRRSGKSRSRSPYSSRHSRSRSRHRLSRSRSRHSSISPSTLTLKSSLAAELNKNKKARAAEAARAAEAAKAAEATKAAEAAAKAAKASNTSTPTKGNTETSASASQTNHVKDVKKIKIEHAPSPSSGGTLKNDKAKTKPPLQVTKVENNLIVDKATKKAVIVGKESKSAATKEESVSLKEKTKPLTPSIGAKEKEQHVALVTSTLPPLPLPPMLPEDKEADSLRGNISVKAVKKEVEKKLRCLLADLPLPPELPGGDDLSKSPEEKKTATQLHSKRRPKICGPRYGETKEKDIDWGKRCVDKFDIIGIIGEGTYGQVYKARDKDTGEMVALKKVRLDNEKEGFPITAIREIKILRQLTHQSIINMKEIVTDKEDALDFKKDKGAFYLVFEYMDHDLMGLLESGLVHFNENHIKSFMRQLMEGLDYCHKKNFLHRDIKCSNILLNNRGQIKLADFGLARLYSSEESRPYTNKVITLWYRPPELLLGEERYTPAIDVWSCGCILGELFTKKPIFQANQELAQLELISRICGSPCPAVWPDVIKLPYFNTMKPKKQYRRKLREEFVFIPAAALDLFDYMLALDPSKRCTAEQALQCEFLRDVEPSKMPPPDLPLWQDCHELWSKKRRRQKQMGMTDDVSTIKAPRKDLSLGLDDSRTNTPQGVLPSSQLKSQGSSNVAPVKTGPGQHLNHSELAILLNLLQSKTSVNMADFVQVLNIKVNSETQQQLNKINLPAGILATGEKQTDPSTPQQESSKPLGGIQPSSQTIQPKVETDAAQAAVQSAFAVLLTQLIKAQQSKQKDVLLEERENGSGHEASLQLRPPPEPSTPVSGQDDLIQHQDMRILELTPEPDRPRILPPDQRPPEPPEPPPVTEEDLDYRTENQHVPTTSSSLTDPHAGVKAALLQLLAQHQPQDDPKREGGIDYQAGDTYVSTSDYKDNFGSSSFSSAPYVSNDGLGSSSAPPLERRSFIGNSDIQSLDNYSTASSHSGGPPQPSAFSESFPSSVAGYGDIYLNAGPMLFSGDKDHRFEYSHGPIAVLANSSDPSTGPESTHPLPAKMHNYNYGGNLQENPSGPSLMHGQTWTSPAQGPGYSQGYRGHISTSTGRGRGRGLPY
PIK3CA(I800L), sequence (P42336 whole entry I800L): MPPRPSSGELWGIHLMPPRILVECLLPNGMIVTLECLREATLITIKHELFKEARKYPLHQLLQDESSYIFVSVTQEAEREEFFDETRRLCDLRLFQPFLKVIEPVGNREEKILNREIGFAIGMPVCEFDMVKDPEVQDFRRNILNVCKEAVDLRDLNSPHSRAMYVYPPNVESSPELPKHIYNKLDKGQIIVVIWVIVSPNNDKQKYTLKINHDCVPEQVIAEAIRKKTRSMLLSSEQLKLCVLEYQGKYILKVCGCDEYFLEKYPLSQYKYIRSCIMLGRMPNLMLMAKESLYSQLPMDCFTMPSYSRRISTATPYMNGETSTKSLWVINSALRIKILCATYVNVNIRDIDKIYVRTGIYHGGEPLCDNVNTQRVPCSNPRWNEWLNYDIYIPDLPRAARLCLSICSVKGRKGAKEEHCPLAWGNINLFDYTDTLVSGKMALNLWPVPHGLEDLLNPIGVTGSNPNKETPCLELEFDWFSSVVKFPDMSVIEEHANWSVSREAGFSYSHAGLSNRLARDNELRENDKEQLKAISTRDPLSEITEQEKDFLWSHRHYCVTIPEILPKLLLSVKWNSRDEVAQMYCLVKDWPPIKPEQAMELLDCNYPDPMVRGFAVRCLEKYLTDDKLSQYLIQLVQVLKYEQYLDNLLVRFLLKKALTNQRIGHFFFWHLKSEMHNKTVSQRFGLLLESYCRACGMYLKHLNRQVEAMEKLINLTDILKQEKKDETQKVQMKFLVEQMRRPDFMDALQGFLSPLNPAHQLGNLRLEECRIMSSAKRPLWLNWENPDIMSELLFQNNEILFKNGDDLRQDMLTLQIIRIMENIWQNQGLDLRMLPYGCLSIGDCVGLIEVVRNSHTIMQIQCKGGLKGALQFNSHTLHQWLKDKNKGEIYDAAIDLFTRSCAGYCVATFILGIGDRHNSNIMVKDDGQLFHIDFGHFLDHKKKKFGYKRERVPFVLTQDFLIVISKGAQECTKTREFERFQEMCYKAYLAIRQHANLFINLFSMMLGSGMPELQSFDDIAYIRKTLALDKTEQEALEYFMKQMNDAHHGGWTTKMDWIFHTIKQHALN
RIPK1, sequence (Q13546 whole entry): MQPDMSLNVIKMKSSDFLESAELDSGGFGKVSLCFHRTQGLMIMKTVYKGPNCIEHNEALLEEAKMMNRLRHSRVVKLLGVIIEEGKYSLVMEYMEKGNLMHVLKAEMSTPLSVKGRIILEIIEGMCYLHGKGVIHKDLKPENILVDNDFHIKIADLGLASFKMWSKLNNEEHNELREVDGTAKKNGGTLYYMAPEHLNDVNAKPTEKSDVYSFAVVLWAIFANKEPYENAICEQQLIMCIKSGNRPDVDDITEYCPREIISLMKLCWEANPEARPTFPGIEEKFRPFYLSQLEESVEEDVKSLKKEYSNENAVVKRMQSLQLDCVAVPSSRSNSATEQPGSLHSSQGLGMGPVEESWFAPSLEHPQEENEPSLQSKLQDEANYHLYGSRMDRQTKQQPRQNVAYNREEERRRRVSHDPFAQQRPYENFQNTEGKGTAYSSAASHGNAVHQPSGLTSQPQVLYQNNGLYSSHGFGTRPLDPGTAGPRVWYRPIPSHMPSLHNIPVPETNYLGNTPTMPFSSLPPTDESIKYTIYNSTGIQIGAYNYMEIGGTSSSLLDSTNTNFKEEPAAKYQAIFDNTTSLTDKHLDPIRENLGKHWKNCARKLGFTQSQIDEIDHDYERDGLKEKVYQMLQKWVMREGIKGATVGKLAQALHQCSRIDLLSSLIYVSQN
TRKB, sequence (Q16620 32-822): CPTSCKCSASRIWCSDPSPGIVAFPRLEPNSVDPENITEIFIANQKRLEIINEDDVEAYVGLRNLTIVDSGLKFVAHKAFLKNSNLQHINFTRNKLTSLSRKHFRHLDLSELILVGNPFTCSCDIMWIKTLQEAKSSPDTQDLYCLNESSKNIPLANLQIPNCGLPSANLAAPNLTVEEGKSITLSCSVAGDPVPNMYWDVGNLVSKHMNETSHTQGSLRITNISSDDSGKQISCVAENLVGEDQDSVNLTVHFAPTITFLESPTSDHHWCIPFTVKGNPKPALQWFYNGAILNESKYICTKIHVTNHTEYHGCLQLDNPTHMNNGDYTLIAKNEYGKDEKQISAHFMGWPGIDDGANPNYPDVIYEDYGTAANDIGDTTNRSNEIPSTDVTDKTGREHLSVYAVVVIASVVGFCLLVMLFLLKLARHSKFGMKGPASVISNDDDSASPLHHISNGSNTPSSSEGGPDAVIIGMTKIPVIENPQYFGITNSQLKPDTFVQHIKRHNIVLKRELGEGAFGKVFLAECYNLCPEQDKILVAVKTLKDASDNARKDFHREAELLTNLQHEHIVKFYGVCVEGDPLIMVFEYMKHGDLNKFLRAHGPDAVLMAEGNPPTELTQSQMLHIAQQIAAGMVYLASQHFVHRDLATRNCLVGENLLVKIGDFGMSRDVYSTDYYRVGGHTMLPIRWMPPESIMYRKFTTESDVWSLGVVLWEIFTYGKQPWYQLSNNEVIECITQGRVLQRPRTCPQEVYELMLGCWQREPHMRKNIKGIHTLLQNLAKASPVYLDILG

Row | Compound | remaining binding at 10 µM (CAMK1G) | remaining binding at 10 µM (PIK3CA(I800L)) | remaining binding at 10 µM (PIM3) | remaining binding at 10 µM (CAMKK1) | remaining binding at 10 µM (PRKCE) | remaining binding at 10 µM [1] | remaining binding at 10 µM (KIT(D816H)) | remaining binding at 10 µM (DRAK2) | remaining binding at 10 µM (TIE1) | remaining binding at 10 µM (WEE2) | remaining binding at 10 µM (EPHA8) | remaining binding at 10 µM (FLT3) | remaining binding at 10 µM (ASK2) | remaining binding at 10 µM (MYLK2) | remaining binding at 10 µM (FLT3(K663Q)) | remaining binding at 10 µM (IKK-epsilon) | remaining binding at 10 µM (PCTK1) | remaining binding at 10 µM (ACVR2B) | remaining binding at 10 µM (CDC2L5) | remaining binding at 10 µM (PRP4) | other results
1 | COc1cc(N2CCC(N3CCN(C)CC3)CC2)ccc1Nc1ncc2c(n1)N(C)c1sc(C)nc1C(=O)N2 [Compound 3, 6-((2-methoxy-4-(4-(4-methylpiperazin-1-yl)piperidin-1-yl)phenyl)amino)-2,4-dimethyl-4,9-dihydro-10H-pyrimido[5,4-b]thiazolo[5,4-e][1,4]diazepin-10-one] | 74% | 100% | 70% | 84% | 100% | 93% | 22% | 100% | 80% | 65% | 64% | 100% | 100% | 84% | 96% | 78% | 100% | 92% | 100% | 100% | remaining binding at 10 µM (CTK): 98%; remaining binding at 10 µM [2]: 4.3%; remaining binding at 10 µM (ERBB3): 100%; remaining binding at 10 µM (CSK): 85%; remaining binding at 10 µM (FAK): 0.55%; remaining binding at 10 µM (CSNK2A1): 93%; remaining binding at 10 µM (RIPK1): 100%; remaining binding at 10 µM (TRKB): 100%; remaining binding at 10 µM (DRAK1): 95%; remaining binding at 10 µM (ZAP70): 100%; remaining binding at 10 µM (MKNK2): 80%
2 | COc1cc(N2CCC(N3CCN(C)CC3)CC2)ccc1Nc1ncc2c(n1)N(C)c1sc(C)nc1C(=O)N2C [Compound 5, 6-((2-methoxy-4-(4-(4-methylpiperazin-1-yl)piperidin-1-yl)phenyl)amino)-2,4,9-trimethyl-4,9-dihydro-10H-pyrimido[5,4-b]thiazolo[5,4-e][1,4]diazepin-10-one] | 95% | 70% | 100% | 100% | 100% | 98% | 100% | 100% | 96% | 100% | 100% | 99% | 100% | 97% | 96% | 100% | 100% | 100% | 100% | 100% | remaining binding at 10 µM (CTK): 96%; remaining binding at 10 µM [2]: 100%; remaining binding at 10 µM (ERBB3): 100%; remaining binding at 10 µM (CSK): 100%; remaining binding at 10 µM (FAK): 0.1%; remaining binding at 10 µM (CSNK2A1): 95%; remaining binding at 10 µM (RIPK1): 96%; remaining binding at 10 µM (TRKB): 100%; remaining binding at 10 µM (DRAK1): 100%; remaining binding at 10 µM (ZAP70): 100%; remaining binding at 10 µM (MKNK2): 90%
